Assay results reported in US20050130252A1, “Stabilized susceptibility tests of aerobic pathogens” (Wyeth Holdings Corporation, priority 2003, published 2005).
Converted amounts (≈) assume the structure as drawn. Read-outs that look alike come from different tables or passages of the source.

What was measured:
[1] = test system: E. coli ATCC 25922; experiment: Broth microdilution MIC; type: cell-based, Escherichia coli; conditions: for MIC: Escherichia coli, ATCC25922, read-out: Minimal Inhibitory Concentration, E. coli ATCC 25922
Protocol: (§1) The process for preparing susceptibility test medium are the following steps: • a. Preparing Mueller Hinton Broth II medium by adding 22 grams powdered media to 1.0 liter distilled water; • b. Autoclaving (121° C., 15 psi, 15 minutes) and cooling the medium; • c. Adding Oxyrase® up to about 10% final volume and keeping at 35-37° C. in an incubator for 30 minutes; • d. Adding about 50 μL to each well of a 96 well microtiter plate; • e. Weighing drug and adding broth to drug to bring up to about (standard 128 μg/ml); • f. Adding 50 μL of the drug to the first column of the titer plate; • g. Diluting by two-fold serial diluting across or down the plate. • h. Preparing a Prompt™ inoculum at 10^8 CFU/ml; • i. Diluting inoculum 1:100 in the broth at […] in 9.9 ml (1:100) is 10^6 colony forming units (CFU) forming the adjusted inoculum; • j. Adding 50 μL of the adjusted inoculum to the wells of the microtiter plate; • k. Incubating the plates at 35-37° C. for 18-22 hours; and • l. Reading, with the unaided eye, the MIC.
(§2) The in vitro activities of tigecycline and control antibiotics were determined by the broth microdilution method as recommended by the NCCLS. (National Committee for Clinical Laboratory Standards, 2003. Methods for Dilution Antimicrobial Susceptibility Tests for Bacteria That Grow Aerobically; Approved Standards: M7-A6, Sixth ed, vol. 23., National Committee for Clinical Laboratory Standards Wayne, Pa.) was used for the standard procedures. MBH with 5% lysed horse blood was used for testing S. pneumoniae and Haemophilus Test Medium was used for testing H. influenzae. Oxyrase® (Oxyrase Inc, Mansfield, Ohio) was used according to the manufacturer's instructions by adding 1 ml of Oxyrase® to 50 ml of media. Media age studies were performed by preparing MHB in multiple flasks, then storing the media under various conditions. MICs were usually performed in duplicate on each day of testing. Storage under anaerobic conditions was conducted in an anaerobic chamber (MACS MG 1000, Don Whitley Scientific LTD). The pH of the media was determined by pH meter (Corning 430). A comparison of the in vitro activity of tigecycline by agar and broth dilution methodolgies with and without Oxyrase® against clinical isolates is shown in Table 1.

[2] = test system: S. aureus ATCC 25923; experiment: Broth microdilution MIC; type: cell-based, Staphylococcus aureus; conditions: Staphylococcus aureus, ATCC25923, read-out: Minimal Inhibitory Concentration, S. aureus ATCC 25923
Protocol: as §1, §2

[3] = test system: Enterococcus faecalis GC2267 tet(L) + (M) + (S); experiment: Agar dilution in vitro activity; type: cell-based; conditions: E. faecalis GC2267 tet(L) + (M) + (S)
Protocol: as §2

[4] = test system: Staphylococcus aureus GC1079 tet(K); experiment: Agar dilution in vitro activity; type: cell-based; conditions: S. aureus GC1079 tet(K)
Protocol: as §2

[5] = test system: ATCC reference strains; experiment: Broth microdilution MIC, reference strains taken together; type: cell-based
Protocol: The MICs for TGC were determined under various conditions by broth microdilution using NCCLS procedures. The MHB was stored at 2° C., room temperature, anaerobically and with the addition of Oxyrase® to determine the effect of various conditions. Time Kill kinetics was used to confirm MIC differences observed with the broth microdilution for aged and fresh media results.
as §2
To determine the effect of media age on the in vitro activity of tigecycline, MHB was prepared and stored at room temperature or 2° C. for 28 days. […] The aging of the media was slowed somewhat in the media stored at […] compared to the media stored at room temperature.

[6] = Table 8, E. coli ATCC 25922, Mueller Hinton Broth + Oxyrase, n = 240
[7] = Table 8, E. coli ATCC 25922, Mueller Hinton Broth, n = 320
[8] = Table 9, E. coli ATCC 25922, Mueller Hinton Broth + Oxyrase, n = 33
[9] = Table 9, E. coli ATCC 25922, Mueller Hinton Broth, n = 90

## CN(C)c1cc(NC(=O)CNC(C)(C)C)c(O)c2c1C[C@H]1C[C@H]3[C@H](N(C)C)C(O)=C(C(N)=O)C(=O)[C@@]3(O)C(O)=C1C2=O [Tigecycline, tigecycline]
[1]; No Oxyrase
  MIC: 0.12 µg/mL (≈ 0.205 µM)
[1]; media Aged Anaerobic, N = 4
  MIC: 0.03 to 0.06 µg/mL (≈ 0.0512 to 0.102 µM)
[1]; [6]
  Number of Occurrences of MIC 0.06 ug/ml: 130
  Number of Occurrences of MIC 0.12 ug/ml: 103
  Number of Occurrences of MIC 0.25 ug/ml: 5
  Number of Occurrences of MIC 1 ug/ml: 2
[1]; [7]
  Number of Occurrences of MIC 0.12 ug/ml: 24
  Number of Occurrences of MIC 0.25 ug/ml: 210
  Number of Occurrences of MIC 0.5 ug/ml: 23
  Number of Occurrences of MIC 1 ug/ml: 58
  Number of Occurrences of MIC 2 ug/ml: 4
  Number of Occurrences of MIC 4 ug/ml: 1
[1]; [8]
  Number of Occurrences of MIC 0.03 ug/ml: 3
  Number of Occurrences of MIC 0.06 ug/ml: 13
  Number of Occurrences of MIC 0.12 ug/ml: 14
  Number of Occurrences of MIC 0.25 ug/ml: 3
[1]; [9]
  Number of Occurrences of MIC 0.06 ug/ml: 1
  Number of Occurrences of MIC 0.12 ug/ml: 15
  Number of Occurrences of MIC 0.25 ug/ml: 47
  Number of Occurrences of MIC 0.5 ug/ml: 27
[2]; 2% Oxyrase
  MIC: 0.06 µg/mL (≈ 0.102 µM)
[2]; MHB II + 0.05% Sodium Pyruvate
  MIC: 0.25 µg/mL
[2]; No Oxyrase
  MIC: 0.25 µg/mL (≈ 0.427 µM)
[3]; Oxyrase (10%)
  In Vitro Activity of Tigecycline: 0.12
[3]; no Oxyrase
  In Vitro Activity of Tigecycline: 0.25
[4]; Oxyrase (10%)
  In Vitro Activity of Tigecycline: 0.25
[4]; no Oxyrase
  In Vitro Activity of Tigecycline: 0.5
[5]; ATCC reference organisms, MHB stored 28 days, Table 4
  Increase in the MICs over the four week period of media storage: 3 to 4 dilution
[5]; Table 3
  MICs in aged media supplemented with Oxyrase compared with fresh media: nearly identical to those determined in fresh media
  MICs in fresh media supplemented with Oxyrase compared with unsupplemented fresh media: not significantly different
[5]; Table 6
  MICs in commercially prepared media and media aged 2 weeks at RT under room air higher than in freshly prepared media: 1-4 dilutions
  MICs in media stored under anaerobic conditions compared with fresh media: nearly identical to the results obtained in fresh media
[5]; reference strains
  More active in freshly prepared media than in commercially prepared and aged media: 2 to 3 dilution
[5]; reference strains, addition of Oxyrase
  MIC: 0.06 to 0.25 µg/mL (≈ 0.102 to 0.427 µM)
[5]; reference strains, aged medium stored under anaerobic conditions prior to testing
  MIC: 0.03 to 0.12 µg/mL (≈ 0.0512 to 0.205 µM)
[5]; reference strains, commercially prepared and aged (7 day old) media from powder
  MIC: 0.12 to 0.25 µg/mL (≈ 0.205 to 0.427 µM)
[5]; reference strains, freshly prepared media
  MIC: 0.03 to 0.12 µg/mL (≈ 0.0512 to 0.205 µM)
